Data from PMC4303524 (Organic & biomolecular chemistry, 2015).
Substitutions are numbered along the chain they refer to. Where two headings read alike, the source gives them in different places.

Columns and labels:
wild-type LasR [1] = molecular target: T1, wild-type LasR (Pseudomonas aeruginosa, UniProt P25084); assay: β-galactosidase reporter-gene assay, LasR activation; type: cell-based; settings: E. coli reporter, geometric mean of biological triplicates
T1 sequence (P25084 1-239): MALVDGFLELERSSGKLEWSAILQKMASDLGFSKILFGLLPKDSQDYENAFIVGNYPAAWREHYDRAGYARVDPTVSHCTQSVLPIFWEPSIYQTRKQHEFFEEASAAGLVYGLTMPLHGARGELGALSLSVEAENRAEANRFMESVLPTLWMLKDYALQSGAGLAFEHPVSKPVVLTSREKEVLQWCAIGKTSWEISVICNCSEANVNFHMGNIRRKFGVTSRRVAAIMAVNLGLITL

LasR T75V = molecular target: T2, LasR T75V (Pseudomonas aeruginosa, UniProt P25084, T75V); assay: as above; type: cell-based
T2 sequence (P25084 1-239 T75V): T1 sequence (P25084 1-239) with T75V

LasR Y93F = molecular target: T3, LasR Y93F (Pseudomonas aeruginosa, UniProt P25084, Y93F); assay: as above; type: cell-based
T3 sequence (P25084 1-239 Y93F): T1 sequence (P25084 1-239) with Y93F

LasR Y56F = molecular target: T4, LasR Y56F (Pseudomonas aeruginosa, UniProt P25084, Y56F); assay: as above; type: cell-based
T4 sequence (P25084 1-239 Y56F): T1 sequence (P25084 1-239) with Y56F

LasR S129A = molecular target: T5, LasR S129A (Pseudomonas aeruginosa, UniProt P25084, S129A); assay: as above; type: cell-based
T5 sequence (P25084 1-239 S129A): T1 sequence (P25084 1-239) with S129A

LasR W60F = molecular target: T6, LasR W60F (Pseudomonas aeruginosa, UniProt P25084, W60F); assay: as above; type: cell-based; settings: for effect of mutation on LasR activation (in words): ligand at 100 nM
T6 sequence (P25084 1-239 W60F): T1 sequence (P25084 1-239) with W60F

LasR R61M = molecular target: T7, LasR R61M (Pseudomonas aeruginosa, UniProt P25084, R61M); assay: as above; type: cell-based
T7 sequence (P25084 1-239 R61M): T1 sequence (P25084 1-239) with R61M

LasR T115V = molecular target: T8, LasR T115V (Pseudomonas aeruginosa, UniProt P25084, T115V); assay: as above; type: cell-based
T8 sequence (P25084 1-239 T115V): T1 sequence (P25084 1-239) with T115V

wild-type LasR [2] = molecular target: T1, wild-type LasR; settings: read-out: EC50 value in wild-type LasR; cited from earlier work
LasR D73L = molecular target: T9, LasR D73L (Pseudomonas aeruginosa, UniProt P25084, D73L); assay: β-galactosidase reporter-gene assay, LasR activation; type: cell-based
T9 sequence (P25084 1-239 D73L): T1 sequence (P25084 1-239) with D73L

LasR W88F = molecular target: T10, LasR W88F (Pseudomonas aeruginosa, UniProt P25084, W88F); assay: as above; type: cell-based
T10 sequence (P25084 1-239 W88F): T1 sequence (P25084 1-239) with W88F

[3] = E. coli reporter, geometric mean of biological triplicates

In the case of `CCCCCCCCCC(=O)CC(=O)NC1CCSC1=O` (centres unmarked) [Ligand 1], the EC50 (wild-type LasR [1]) is reported as 5 nM, the EC50 (LasR T75V; [3]) is reported as 0.5 nM and the EC50 (LasR Y93F; [3]) is reported as 10 nM. For the same compound, the EC50 (LasR Y56F; [3]) was 5 nM, the EC50 (LasR S129A; [3]) was 30 nM and the EC50 (LasR W60F; [3]) was 70 nM. It also gave an EC50 (LasR R61M; [3]) of 80 nM and an EC50 (LasR T115V; [3]) of 3500 nM.
With `CCCCCCCCCC(=O)CC(=O)NC1CCCC1` [Ligand 2] the “effect of mutation on LasR activation (in words)” value (from here on “effect of mutation”) (LasR S129A; ligand at 10 μM) was “significantly detrimental”, the “effect of mutation” value (LasR R61M; ligand at 10 μM) was “significantly detrimental” and the “effect of mutation” value (LasR T115V; ligand at 10 μM) was “significantly detrimental”.
With `CCCCCCCCCC(=O)CC(=O)Nc1ccccc1` [Ligand 3] the “activity in mutant LasR (activation, in words)” value (“activity in mutant LasR” below) (LasR Y93F; ligand at 10 μM) was “flipped the activity of 3 into an agonist”, the “activity in mutant LasR” value (LasR Y56F; ligand at 10 μM) was “moderate agonist” and the “activity in mutant LasR” value (LasR W60F; ligand at 10 μM) was “moderate agonist”.
In the case of `CCCCCCCCCCCC(=O)N[C@H]1CCOC1=O` [Ligand 4], the “effect of mutation” value (LasR Y56F; ligand at 100 nM) is reported as “small but significant impact”, the “effect of mutation” value (LasR S129A; ligand at 100 nM) is reported as “significantly decreased LasR activation” and the “effect of mutation” value (LasR W60F) is reported as “significantly decreased LasR activation”. The “effect of mutation” value (LasR R61M; ligand at 100 nM) was “perhaps only a slight effect”, the “effect of mutation” value (LasR T115V; ligand at 100 nM) was “destroyed LasR activation” and the EC50 (wild-type LasR [2]) was 40 nM.
In the case of `CCCCCCCCCCCC(=O)N[C@H]1CCSC1=O` [Ligand 5], the “effect of mutation” value (LasR S129A; ligand at 100 nM) is reported as “significantly decreased LasR activation”, the “effect of mutation” value (LasR W60F) is reported as “significantly decreased LasR activation” and the “effect of mutation” value (LasR R61M; ligand at 100 nM) is reported as “no significant effect”. The “effect of mutation” value (LasR T115V; ligand at 100 nM) was “destroyed LasR activation”.
With `CCCCCCCCCC(=O)CC(=O)N[C@H]1CCOC1=O` [OdDHL, N-(3-oxo)-dodecanoyl L-homoserine lactone, reference compound] the “maximal activation (% vs. wild-type)” value (LasR T75V; 10 μM OdDHL, mean of biological triplicates) was 106%, the “maximal activation (% vs. wild-type)” value (LasR D73L; 10 μM OdDHL) was 0% and the EC50 (LasR D73L; E. coli reporter) was “inactive”. The “maximal activation (% vs. wild-type)” value (LasR W88F; 10 μM OdDHL) was 0%, the EC50 (LasR W88F; E. coli reporter) was “inactive” and the “maximal activation (% vs. wild-type)” value (LasR Y93F; 10 μM OdDHL) was 93%. For the same compound, the “maximal activation (% vs. wild-type)” value (LasR Y56F; 10 μM OdDHL) was 102%, the “maximal activation (% vs. wild-type)” value (LasR S129A; 10 μM OdDHL) was 103% and the “maximal activation (% vs. wild-type)” value (LasR W60F; 10 μM OdDHL) was 73%. For the same compound, the “maximal activation (% vs. wild-type)” value (LasR R61M; 10 μM OdDHL) was 56% and the “maximal activation (% vs. wild-type)” value (LasR T115V; 100 μM OdDHL) was 109%.
